Results: publication PMC4558462, “A new small molecule inhibitor of soluble guanylate cyclase” (Bioorganic & Medicinal Chemistry, 2015)
“Also recorded” adds a separate entry of the source. Where two headings read alike, the source gives them in different places.

Assays:
[1] = tested on: NMDA-stimulated cGMP production in cerebellar slices; test: NMDA-stimulated cGMP production in rat cerebellar slices; type: cell-based; conditions: 100 μM
Experimental: The ability of compound 10 to inhibit sGC in tissues was explored using NMDA-stimulated cGMP production in cerebellar slices, which depends on NO formation. Rat cerebellar slices were pre-incubated with compound 10 then treated with NMDA.
Brain slices methods were conducted as described in detail.[37,38] Briefly, 0.4 mm thick sagittal cerebellar slices from 10-day-old animals were cut using a McIlwain tissue chopper. Experiments were carried out in the presence of the broad spectrum phosphodiesterase inhibitor IBMX (1 mM; 10 min preincubation) and, when appropriate, antagonists were added 10 min prior to IBMX. Following treatment, brain slices were inactivated in boiling Tris–HCl buffer (50 mM, pH 7.5) containing EDTA (4 mM) and homogenised by sonication after which aliquots were removed for measurement of protein (bicinchoninic acid method) and cGMP (radioimmunoassay).

purified bovine lung sGC = target: T1, purified bovine lung sGC (Bos taurus, UniProt P16068+P19687); test: Soluble guanylate cyclase activity assay (cGMP radioimmunoassay); type: biochemical
T1 construct: screened at 100 μM against purified bovine lung sGC; purchased Enzo lifesciences ALX-202-039-C005; host or cells: bovine lung
T1 sequence (P19687 1-691): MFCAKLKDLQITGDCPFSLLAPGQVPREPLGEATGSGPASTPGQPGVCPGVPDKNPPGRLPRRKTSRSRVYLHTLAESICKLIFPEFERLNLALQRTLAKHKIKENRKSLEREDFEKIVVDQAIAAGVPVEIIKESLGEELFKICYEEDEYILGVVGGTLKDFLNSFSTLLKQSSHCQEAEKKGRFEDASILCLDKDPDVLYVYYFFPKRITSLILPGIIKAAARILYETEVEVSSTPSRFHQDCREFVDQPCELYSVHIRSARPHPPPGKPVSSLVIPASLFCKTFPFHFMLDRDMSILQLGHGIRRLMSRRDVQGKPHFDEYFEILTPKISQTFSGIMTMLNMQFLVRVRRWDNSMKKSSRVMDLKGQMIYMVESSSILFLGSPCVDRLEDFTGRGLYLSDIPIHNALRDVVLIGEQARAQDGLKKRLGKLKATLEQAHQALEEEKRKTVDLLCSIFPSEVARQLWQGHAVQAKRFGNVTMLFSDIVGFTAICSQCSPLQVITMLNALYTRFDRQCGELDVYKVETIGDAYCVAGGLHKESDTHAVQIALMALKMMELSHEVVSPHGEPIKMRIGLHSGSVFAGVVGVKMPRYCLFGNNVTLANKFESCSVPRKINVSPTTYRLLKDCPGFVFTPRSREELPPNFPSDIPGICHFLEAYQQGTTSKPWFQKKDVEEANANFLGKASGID
T1 sequence (P16068 1-619): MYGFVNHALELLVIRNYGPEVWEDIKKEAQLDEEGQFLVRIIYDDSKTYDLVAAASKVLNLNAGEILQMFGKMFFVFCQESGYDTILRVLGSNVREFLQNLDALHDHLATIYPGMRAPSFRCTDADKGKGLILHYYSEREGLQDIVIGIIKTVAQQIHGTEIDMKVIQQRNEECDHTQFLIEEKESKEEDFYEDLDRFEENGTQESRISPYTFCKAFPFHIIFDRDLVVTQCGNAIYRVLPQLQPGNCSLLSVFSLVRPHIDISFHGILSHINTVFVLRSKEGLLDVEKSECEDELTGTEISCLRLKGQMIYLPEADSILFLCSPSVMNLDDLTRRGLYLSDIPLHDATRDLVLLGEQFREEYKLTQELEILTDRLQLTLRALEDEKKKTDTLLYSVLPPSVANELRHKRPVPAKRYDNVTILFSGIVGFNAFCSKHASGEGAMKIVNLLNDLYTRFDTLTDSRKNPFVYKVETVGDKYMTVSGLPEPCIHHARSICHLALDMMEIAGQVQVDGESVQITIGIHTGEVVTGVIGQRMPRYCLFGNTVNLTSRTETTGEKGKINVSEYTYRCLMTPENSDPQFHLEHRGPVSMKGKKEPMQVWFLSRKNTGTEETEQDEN
Experimental: Virtual screening was performed by similarity searches using MACCS fingerprints at 85% and 75% Tanimoto of commercial libraries and the selected compounds were screened at 100 μM against purified bovine lung sGC using diethylamine NONOate (30 nM) as the NO donor. Enzyme activity was determined by measuring cGMP production using a standard cGMP [^3H] radioimmunoassay.[21,22]
[…] Compounds were added at 100 μM prior to adding the NO donor DEA/NO (30 nM) or clamped NO concentrations. cGMP generation was allowed to proceed for two minutes, after which aliquots were withdrawn and inactivated by boiling in 50 mM Tris, 4 mM EDTA buffer. cGMP formation was measured by a standard radioimmunoassay.

## O=[N+]([O-])c1ccc2nc(Nc3ccc(O)cc3)c(Nc3ccc(O)cc3)nc2c1 [Compound 10, 4,4′-((6-Nitroquinoxaline-2,3-diyl)bis(azanediyl))diphenol]
[1]
  inhibition of NMDA-induced cGMP generation: almost completely; also recorded: inhibits cGMP production
Purified bovine lung sGC; GC activator cinaciguat 20 nM
  Hill slope: 4
Purified bovine lung sGC; GC activator cinaciguat 20 nM, no NO, read-out: IC50 (μM) ± SE
  IC50: 25 ± 4 µM
Purified bovine lung sGC; GC activator cinaciguat 1 μM
  Hill slope: 4
Purified bovine lung sGC; GC activator cinaciguat 1 μM, no NO, read-out: IC50 (μM) ± SE
  IC50: 37 ± 40 µM
Purified bovine lung sGC; NO 0.3 nM, GTP 50 μM, read-out: IC50, NO-stimulated cGMP production by isolated sGC
  IC50: 21 ± 3 µM
Purified bovine lung sGC; NO 0.3 nM, GTP 200 μM, read-out: IC50, NO-stimulated cGMP production by isolated sGC
  IC50: 33 ± 4 µM
Purified bovine lung sGC; NO 0.3 nM, GTP 1000 μM, read-out: IC50, NO-stimulated cGMP production by isolated sGC
  IC50: 33 ± 9 µM
Purified bovine lung sGC; NO 10 nM, GTP 50 μM, read-out: IC50, NO-stimulated cGMP production by isolated sGC
  IC50: 19 ± 2 µM
Purified bovine lung sGC; NO 10 nM, GTP 200 μM, read-out: IC50, NO-stimulated cGMP production by isolated sGC
  IC50: 19 ± 1 µM
Purified bovine lung sGC; NO 10 nM, GTP 1000 μM, read-out: IC50, NO-stimulated cGMP production by isolated sGC
  IC50: 34 ± 2 µM
Purified bovine lung sGC; cinaciguat-activated, no NO
  inhibition of cGMP production after enzyme activation with cinaciguat (in words): capable of inhibiting cGMP production
Purified bovine lung sGC; read-out: % inhibition of sGC activity at 100 μM compound
  inhibition at 100 µM: 99%
Purified bovine lung sGC; read-out: sGC activity% inhibition at 100 μM
  inhibition at 100 µM: 56.2 ± 22.4%
